Test results reported in publication PMC7263589, “Integration of phage and yeast display platforms: A reliable and cost effective approach for binning of peptides as displayed on-phage” (PLoS ONE, 2020).
Bridge positions count the residues as written; N and C are the ends. Peptide text beside a SMILES is read from it.

Legend:
[1] = biological target: FGL-containing peptide phage (FGL Phage); assay: flow cytometry on yeast-displayed IL-23, phage detected with anti-M13-AF647; conditions: n = 2; parent: est. 24; read off a plot
IL-23 = biological target: T1, IL-23 (Homo sapiens, UniProt P29460+Q9NPF7); assay: SPR direct binding to captured IL-23-AVI (Biacore T200); conditions: for kon: 50 μl/min, 10 mM HEPES pH 7.5, 150 mM NaCl, 0.005% P20, 3% DMSO, multi-cycle (single cycle kinetics for 23–652 and IL-23R), read-out: ka
T1 construct: made in house
T1 sequence (Q9NPF7 20-189): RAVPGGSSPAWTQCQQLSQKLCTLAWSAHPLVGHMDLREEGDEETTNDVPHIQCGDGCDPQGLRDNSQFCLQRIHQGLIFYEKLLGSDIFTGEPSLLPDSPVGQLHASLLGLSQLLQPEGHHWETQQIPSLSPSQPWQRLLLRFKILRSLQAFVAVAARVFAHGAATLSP
T1 sequence (P29460 23-328): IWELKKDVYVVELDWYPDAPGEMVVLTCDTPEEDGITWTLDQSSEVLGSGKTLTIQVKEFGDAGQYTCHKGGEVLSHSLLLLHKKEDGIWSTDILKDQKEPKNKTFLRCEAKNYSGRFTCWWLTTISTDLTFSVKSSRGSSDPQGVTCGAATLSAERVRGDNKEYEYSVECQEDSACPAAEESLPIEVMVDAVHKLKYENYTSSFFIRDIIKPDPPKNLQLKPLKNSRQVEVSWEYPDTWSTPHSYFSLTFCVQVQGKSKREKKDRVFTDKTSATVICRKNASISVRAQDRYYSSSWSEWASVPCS
Description: SPR (Biacore T200, GE Healthcare) was used to determine binding constants of the peptides against IL-23 and their competitiveness to IL-23R. All SPR experiments were performed at 25°C with flow rate of 50 μl/min. Assay buffer used in direct binding experiment was 10 mM HEPES pH 7.5, 150 mM NaCl, 0.005% P20, and 3% DMSO. Assay buffer used in competition experiment was 10 mM HEPES pH 7.5, 150 mM NaCl, 0.005% P20, and 1% BSA. All peptides were reconstituted first in DMSO as 10 mM stocks and then diluted into assay buffer. The proteins used in direct binding and competition SPR are described in S1 Table in S1 File. For direct binding of peptides against IL-23, 2000–9000 RU of IL-23-AVI was captured to streptavidin sensor chips (GE Healthcare, Series S Sensor Chip SA, BR-1005-31). Dilution series with 3-fold increment were prepared for each peptide. Initially, all peptides were tested up to 30 μM. Concentration range for some were then lowered accordingly based on affinity or nuisance behavior at high concentrations. SPR “multi-cycle” type was used for peptides 23–644, 23–437, 23–441, 23–446, and 23–447. Each cycle consisted of 30s of analyte injection and then 60s of buffer flow to monitor dissociation. “Single cycle kinetics” (SCK) type was used for 23–652 due to their long dissociation half-lives. Each SCK cycle consisted of five 60s injections of sample in increasing concentration with a final 600s of dissociation. To study IL-23 and IL-23R interaction, 200–1000 RU of IL-23-AVI and IL-23R-Fc-AVI were captured to streptavidin sensor chip. Dilution series with 3-fold increment of IL-23R-FLAG-HIS and IL-23-HIS were run in SCK cycle type as described above except the final dissociation time were 60-300s. Sensorgrams from the entire titration series for each sample were fitted globally to extract binding kinetics and affinity using Biacore T200 Evaluation Software 2.0 (GE Healthcare) according to a 1:1 binding model. To identify IL-23 binders that can block receptor binding, a competition SPR was established. In each SPR cycle, fresh IL-23R was capture (<1000 RU) by injecting 10 μg/ml of IL-23R-Fc-AVI to a Protein-A flow cell at 10 μl/min flow rate for 30s. Analyte consisted of a mixture of 20 nM of IL-23 protein and a single concentration of peptide was then injected for 30s at 50 μl/min to observe IL-23 binding. Finally, the Protein-A surface was regenerated by 10 mM Glycine pH 1.5 for 30s at 30 μl/min. IL-23 at 20 nM without peptide, “IL-23 only”, was used as control to quantify IL-23 binding without blockage; while “cold” IL-23R was used as a positive control for blockage.

[2] = IL-23-AVI captured on streptavidin chip, 25°C, 1:1 binding model, n = 1, 23–447 an estimate

Chain of wild-type IL-23 displayed on yeast (from UniProt Q9NPF7;P29460) K20A (P29460 whole entry, looked up): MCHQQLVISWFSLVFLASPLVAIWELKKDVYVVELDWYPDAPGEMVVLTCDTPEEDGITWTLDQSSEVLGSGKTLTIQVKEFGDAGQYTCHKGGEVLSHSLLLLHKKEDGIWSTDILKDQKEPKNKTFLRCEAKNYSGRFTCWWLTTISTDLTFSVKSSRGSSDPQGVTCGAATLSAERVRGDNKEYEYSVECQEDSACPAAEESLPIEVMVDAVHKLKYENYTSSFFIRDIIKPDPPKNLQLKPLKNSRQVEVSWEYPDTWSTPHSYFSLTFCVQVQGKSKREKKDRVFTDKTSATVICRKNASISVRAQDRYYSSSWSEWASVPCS
Chain of wild-type IL-23 displayed on yeast (from UniProt Q9NPF7;P29460) K20A (Q9NPF7 whole entry, looked up): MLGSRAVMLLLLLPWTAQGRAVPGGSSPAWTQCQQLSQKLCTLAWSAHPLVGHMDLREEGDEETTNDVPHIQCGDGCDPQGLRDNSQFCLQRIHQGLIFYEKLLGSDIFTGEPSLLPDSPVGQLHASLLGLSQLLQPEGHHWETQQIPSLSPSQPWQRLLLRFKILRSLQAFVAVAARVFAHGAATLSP
Chain of wild-type IL-23 displayed on yeast (from UniProt Q9NPF7;P29460) W137A (P29460 whole entry, looked up): as the sequence (P29460 whole entry, looked up) above
Chain of wild-type IL-23 displayed on yeast (from UniProt Q9NPF7;P29460) W137A (Q9NPF7 whole entry, looked up): as the sequence (Q9NPF7 whole entry, looked up) above
Chain of wild-type IL-23 displayed on yeast (from UniProt Q9NPF7;P29460) L24A (P29460 whole entry, looked up): as the sequence (P29460 whole entry, looked up) above
Chain of wild-type IL-23 displayed on yeast (from UniProt Q9NPF7;P29460) L24A (Q9NPF7 whole entry, looked up): as the sequence (Q9NPF7 whole entry, looked up) above

Compound | response [1] | kon (IL-23; [2]) | also measured
wild-type IL-23 displayed on yeast (from UniProt Q9NPF7;P29460) K20A | 22 | – | –
CC(C)C[C@H](NC(=O)CN)C(=O)N[C@@H](CCCNC(=N)N)C(=O)N[C@@H](CCC(=O)O)C(=O)N[C@@H](CCCNC(=N)N)C(=O)N[C@H]1CSSC[C@@H](C(=O)N[C@@H](CCC(N)=O)C(=O)N[C@@H](CC(N)=O)C(=O)N[C@@H](Cc2c[nH]c3ccccc23)C(=O)N[C@@H](Cc2ccc(O)cc2)C(=O)N[C@@H](Cc2c[nH]c3ccccc23)C(=O)O)NC(=O)[C@H](Cc2ccccc2)NC(=O)[C@H](CCC(=O)O)NC(=O)[C@H](Cc2c[nH]cn2)NC(=O)CNC(=O)[C@H](Cc2ccc(O)cc2)NC(=O)[C@H](CC(N)=O)NC(=O)[C@H](CCCNC(=N)N)NC(=O)[C@H](C(C)C)NC1=O [23–446] (H-GLRERCVRNYGHEFCQNWYW-OH; disulfide 6-15) | – | 3.88e+06 M⁻¹ s⁻¹ | –
CC[C@H](C)[C@H](NC(=O)[C@H](CO)NC(=O)[C@H](Cc1c[nH]c2ccccc12)NC(=O)[C@H](CC(C)C)NC(=O)[C@H](CCSC)NC(=O)[C@@H]1CSSC[C@H](NC(=O)[C@H](CC(C)C)NC(=O)[C@@H](NC(=O)[C@H](CCC(N)=O)NC(=O)[C@H](CC(C)C)NC(=O)[C@@H](N)CC(C)C)[C@@H](C)O)C(=O)N[C@@H](CCC(N)=O)C(=O)N[C@@H](CCSC)C(=O)N[C@@H]([C@@H](C)O)C(=O)N[C@@H](CO)C(=O)N[C@@H](CC(=O)O)C(=O)N[C@@H](C)C(=O)N[C@@H](CCCNC(=N)N)C(=O)N[C@@H]([C@@H](C)O)C(=O)N1)C(=O)O [23–443] (H-LLQTLCQMTSDARTCMLWSI-OH; disulfide 6-15 (inferred); N-terminus and C-terminus assumed) | – | – | Kd (IL-23; IL-23-AVI captured on streptavidin chip, 25°C, 1:1 binding model, n = 1, 23–447 an estimate, NB: not binding as free peptide): > 30 µM; binding to IL-23 as a free peptide (IL-23; chemically synthesized peptide): did not retain its binding
wild-type IL-23 displayed on yeast (from UniProt Q9NPF7;P29460) W137A | 23 | – | –
wild-type IL-23 displayed on yeast (from UniProt Q9NPF7;P29460) L24A | 17 | – | –
CC(C)C[C@@H]1NC(=O)CNC(=O)[C@H](Cc2ccccc2)NC(=O)[C@H](Cc2c[nH]c3ccccc23)NC(=O)[C@@H](NC(=O)[C@@H]2CCCN2C(=O)[C@H](CC(=O)O)NC(=O)[C@@H]2CCCN2C(=O)[C@@H](NC(=O)[C@@H](N)Cc2c[nH]cn2)C(C)C)CSSC[C@@H](C(=O)N[C@@H](CC(=O)O)C(=O)N[C@H](C(=O)N[C@@H](CC(C)C)C(=O)N[C@@H](CC(N)=O)C(=O)N[C@@H](CO)C(=O)O)C(C)C)NC(=O)[C@H](CC(C)C)NC1=O [23–644] (H-HVPDPCWFGLLCDVLNS-OH; disulfide 6-12) | – | 49300 M⁻¹ s⁻¹ | –
